Test results from US9072741B2, “Methods of treating liver fibrosis and pre-cirrhosis with epidermal growth factor receptor inhibitors” (The General Hospital Corporation, priority 2009, dated 2015).

Test system: DEN-induced liver fibrosis/pre-cirrhosis
Test: DEN-treated rats, treatment begun at 8, 12 or 15 weeks: Ishak score
Type: in vivo, male Wistar rats
Procedure: FIG. 8B is a bar graph depicting Ishak scores in male Wistar rats receiving weekly intraperitoneal injections of 50 mg/kg DEN for 18 weeks and vehicle only (n=8) or 2 mg/kg gefitnib (n=8) beginning at either 8, 12, or 15 weeks. *, significant.
Male Wistar rats received weekly intraperitoneal injections of DEN (50 mg/kg) for 16 weeks. Rats received vehicle control or gefitinib (2 mg/kg) daily beginning at either 8, 12, or 15 weeks and lasting until 18 weeks. To assess the extent of liver disease at the start of each treatment, a subgroup of rats were sacrificed after a two-week washout of DEN and the liver was harvested and processed for analysis. Masson's trichrome stains of liver sections from each animal were analyzed by a blinded pathologist. After 8 weeks and 12 weeks of DEN administration, no macroscopic findings were observed on the surface of the liver (FIG. 8A). […] After 15 weeks of DEN administration, the rats had progressed to late stage cirrhosis which could be observed macroscopically on the surface of the liver (FIG. 8A) as well as microscopically. Rats receiving vehicle or gefitinib were sacrificed at 18 weeks after a two-week washout of DEN. The liver was harvested and processed for analysis. Masson's trichrome stains of liver sections from each animal were scored by a blinded pathologist by the method of Ishak. […]

Structure (SMILES): COc1cc2ncnc(Nc3ccc(F)c(Cl)c3)c2cc1OCCCN1CCOCC1 [gefitinib, 4-Quinazolinamine, N-(3-chloro-4-fluorophenyl)-7-methoxy-6-(3-(4-morpholinyl)propoxy)]
- progression of liver fibrosis/pre-cirrhosis (Ishak) (2 mg/kg daily beginning at 8 weeks until 18 weeks): inhibited the progression of liver fibrosis/pre-cirrhosis
- progression of liver fibrosis/pre-cirrhosis (Ishak) (2 mg/kg daily beginning at 12 weeks until 18 weeks): inhibited the progression of liver fibrosis/pre-cirrhosis
